Laboratory results taken from publication PMC9323974, “Palladium(II) Complexes of Substituted Salicylaldehydes: Synthesis, Characterization and Investigation of Their Biological Profile” (Pharmaceuticals, 2022).
Values joined by “and” are separate entries in the source; they are usually repeats but may differ in a detail not shown here. Identical values can stand only once. Like-named read-outs stand apart in the source and are kept apart here.

Experiments:
[1] = tested on: S. aureus, B. subtilis, E. coli, X. campestris; test: MIC stated for all tested bacterial strains; type: cell-based; conditions: all tested microbes
Protocol: S2 Antibacterial activity
The antimicrobial activity of the compounds was evaluated by determining their respective MIC values towards two Gram–(–) (Escherichia coli NCTC 29212 (E. coli) and Xanthomonas campestris ATCC 1395 (X. campestris)) and two Gram–(+) (Staphylococcus aureus ATCC 6538 (S. aureus) and Bacillus subtilis ATCC 6633 (B. subtilis)) bacterial species. Cultures of these microbial strains were grown on a rich selective agar medium and stored at 4°C. The selective media used were Nutrient Agar or Broth for B. subtilis and S. aureus, Yeast Mold Agar or Broth for X. campestris and Luria Agar or Broth for E. coli. Cells picked from the surface of the stored cultures were used to initiate liquid pre–cultures of the same selective medium at an initial turbidity of roughly 1 McFarland unit. Pre–cultures were incubated for 24 h in a rotary shaking incubator and subsequently they were used to inoculate the test cultures used for the determination of MIC at an initial turbidity of 0.5 McFarland units. The test cultures consisted of Mueller –Hinton broth (Deben Diagnostics Ltd) containing different concentrations of the compounds.
Different concentrations were achieved as follows: the compounds were freshly dissolved in DMSO to a concentration of 1 mg mL–1 and they were diluted with DMSO, using the method of progressive double dilution. Therefore, working solutions with decreasing concentrations of the compounds under investigation were achieved. The working solutions were subsequently diluted to the final desired concentration by addition to the growth medium at a proportion of 2:98. MIC values were determined as the lowest concentrations of the tested compounds that inhibited visible growth of each respective organism after a 24 h incubation [ S3]. Bacterial growth was determined by measuring the turbidity of appropriately diluted cultures at 600 nm with reference to equally diluted sterile growth medium and the inhibition achieved was calculated by comparing the turbidity of each culture to the average of the turbidity of three non–inhibited cultures. All test cultures were grown in triplicates and for the determination of MIC, growth had to be inhibited in at least two cultures of the triplicate. Incubation temperature at all stages was 37°C except for X. campestris that was cultivated at 28°C [S4].

CT DNA = conditions: cited from earlier work
EB-DNA adduct (CT DNA) = conditions: cited from earlier work
BSA = target: T1, BSA (Bos taurus, UniProt P02769); conditions: cited from earlier work
T1 construct: purchased Sigma-Aldrich Co
T1 sequence (P02769 25-607): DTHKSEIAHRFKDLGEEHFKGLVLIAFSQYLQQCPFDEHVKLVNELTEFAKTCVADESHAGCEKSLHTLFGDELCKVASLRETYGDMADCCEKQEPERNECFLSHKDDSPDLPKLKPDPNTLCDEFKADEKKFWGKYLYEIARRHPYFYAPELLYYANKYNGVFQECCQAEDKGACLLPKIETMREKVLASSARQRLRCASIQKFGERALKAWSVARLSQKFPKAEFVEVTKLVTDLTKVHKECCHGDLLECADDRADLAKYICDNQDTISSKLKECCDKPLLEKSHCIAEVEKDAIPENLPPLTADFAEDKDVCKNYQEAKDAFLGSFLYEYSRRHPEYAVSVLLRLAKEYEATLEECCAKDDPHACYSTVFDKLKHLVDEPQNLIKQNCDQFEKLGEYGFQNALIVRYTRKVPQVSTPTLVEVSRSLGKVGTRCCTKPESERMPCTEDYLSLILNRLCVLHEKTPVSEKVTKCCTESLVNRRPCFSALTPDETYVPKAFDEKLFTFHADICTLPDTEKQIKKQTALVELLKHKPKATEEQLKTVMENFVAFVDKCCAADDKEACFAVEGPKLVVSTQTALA

| Compound | MIC ([1]; read-out: MIC) [µg/mL] | Kb (DNA-binding constant) (CT DNA) | KSV (Stern–Volmer constant), EB-DNA (EB-DNA adduct (CT DNA)) | kq (EB-DNA quenching constant) (EB-DNA adduct (CT DNA)) | ΔΙ/Ι0 (%) EB-DNA fluorescence quenching (EB-DNA adduct (CT DNA)) [%] | K BSA-binding constant (BSA) | kq BSA-quenching constant (BSA) | MIC [1] |
| --- | --- | --- | --- | --- | --- | --- | --- | --- |
| CCN(CC)c1ccc(C=O)c(O)c1 [4-Et2N-saloH, 4-diethylamino-salicylaldehyde, reference compound] | > 200 |  |  |  |  |  |  |  |
| COc1ccc(C=O)c(O)c1 [4-OMe-saloH, 4-methoxy-salicylaldehyde, reference compound] | > 200 | 9.25 (±0.12) × 10^5 M^−1 | 5.19 (±0.17) × 10^4 M^−1 | 2.26 (±0.07) × 10^12 M^−1s^−1 | 62.5 | 4.11 (±0.23) × 10^5 M^−1 | 1.16 (±0.14) × 10^13 M^−1 s^−1 |  |
| O=Cc1cc(Br)cc(Br)c1[O][Pd][O]c1c(Br)cc(Br)cc1C=O [Complex 2, [Pd(3,5-diBr-salo)2]] |  |  |  |  |  |  |  | 25 μg/mL and 38 μM |
